We go through 38 compounds from US20220064127A1, “PLATELET AGGREGATION INHIBITOR, PREPARATION AND USES THEREOF” (SHENYANG HINEWY PHARMACEUTICAL TECHNOLOGY CO., LTD., priority 2020, published 2022).

One assay has as its system ADP-Induced Platelet Aggregation. The assay is described as follows: Inhibition of ADP-induced platelet aggregation in rabbit platelet-rich plasma (microplate method). It counts as cell-based. Particulars: Oryctolagus cuniculus, Platelet; 30 μM, rabbit PRP, inducer ADP; read-out: Inhibition rate of target compounds on platelet aggregation at 30 μM. The procedure: Example 62 Investigation on Inhibition of ADP-Induced Platelet Aggregation in Rabbit
A blood sample was collected from ear vein of a healthy male rabbit, added with 3.8% sodium citrate for anticoagulation and then centrifuged at 800 r/min for 10 min to prepare platelet-rich plasma (PRP) and at 3,000 r/min for 10 min to prepare platelet-poor plasma (PPP). The investigation on the plasma should be performed within 0.5-3 h after the preparation.
2. Determination of Platelet Aggregation by Microplate Method
The drugs to be tested were weighed and added with an appropriate amount of DMSO to prepare a series of 10 mM stock solutions, which were respectively diluted to prepare 10× stock solutions with normal saline for further use.
Several wells of a microplate were selected as test wells, which were added with 135 μL of PRP and then respectively added with 15 μL of the 10× stock solutions. A well in which 135 μL of PRP and 15 μL of normal saline were added was used as the vehicle control, and a well in which 135 μL of PPP and 15 μL of normal saline were added was used as the blank control. Duplicate wells were set for each test well. The plate was shaken, incubated at 37° C. for 5 min, and then measured for A0 at 655 nm. Subsequently, the microplate was added with 15 μL of an inducer […] (ADP) working solution (25 μmol/L) in each well, incubated at 37° C. under shaking and measured at 655 nm for A1, where the incubation time was determined according to the time in the pre-experiment when the maximum aggregation appeared. The platelet aggregation rate (AR) and platelet aggregation inhibition rate (AIR) were calculated according to the following formulas:
AR=(1−ARtest sample/ARcontrol)
Broadly, the inhibition is the drop in the measured response relative to a control, in per cent. `CCOC(=O)c1c(C)nc(-c2cccc(C#N)c2)n1OCCC(=O)O` [LY-26i, 3-{[2-(3-cyanophenyl)-5-(ethoxycarbonyl)-4-methyl-1H-imidazol-1-yl]oxy}propionic acid]: the inhibition at 30 µM was found to be 24.4%.
Still for that read-out and setting: as for `CCOC(=O)c1c(C)nc(-c2ccccc2)n1OC` [LY-25, ethyl 4-methyl-2-phenyl-1-methoxy-1H-imidazole-5-carboxylate], the figure is 24.1%; as for `CCOC(=O)c1c(C)nc(-c2cccc(C#N)c2)n1OCC(N)=O` [LY-26h, ethyl 1-(2-amino-2-oxoethoxy)-2-(3-cyanophenyl)-4-methyl-1H-imidazole-5-carboxylate], 18.9%; as for `CCOC(=O)c1[nH]c(-c2cccc(C#N)c2)nc1C` [LY-29, ethyl 2-(3-cyanophenyl)-4-methyl-1H-imidazole-5-carboxylate], 32.5%.
The same measure, in the same setting: with `CCOC(=O)c1c(C)nc(-c2cccc(C#N)c2)n1OCc1cccc(C#N)c1` [LY-26x, ethyl 1-[(3-cyanobenzyl)oxy]-2-(3-cyanophenyl)-4-methyl-1H-imidazole-5-carboxylate] the figure was 3.21%.

Still in this assay, the particulars now being: Oryctolagus cuniculus, Platelet; rabbit PRP, inducer ADP, absorbance 655 nm; read-out: IC50 (Mean ± SE), ADP-induced platelet aggregation.
One may read the IC50 as the point on the concentration scale where inhibition reaches its midpoint. Take `CCOC(=O)c1c(C)nc(-c2cccc(C#N)c2)n1OCc1ccccc1F` [LY-26l, ethyl 2-(3-cyanophenyl)-1-[(2-fluorobenzyl)oxy]-4-methyl-1H-imidazole-5-carboxylate]: the half-maximal inhibitory concentration (IC50) turned out to be 5.88 ± 0.196 µM.
Still for that read-out and setting: as for `CCOC(=O)c1c(C)nc(-c2cccc(C#N)c2)n1OCc1ccncc1` [LY-26j, ethyl 2-(3-cyanophenyl)-4-methyl-1-(pyridin-4-methoxy)-1H-imidazole-5-carboxylate], the figure is 6.196 ± 0.0526 µM.
On the same count and under the same terms, as for `CCOC(=O)c1c(C)nc(-c2cccc(C#N)c2)n1OCc1ccc(Cl)cc1` [LY-26q, ethyl 1-[(4-chlorobenzyl)oxy]-2-(3-cyanophenyl)-4-methyl-1H-imidazole-5-carboxylate], the figure is 6.83 ± 0.265 µM; as for `Cc1nc(-c2cccc(C#N)c2)n(OCc2ccc(C#N)cc2)c1C(=O)O` [LY-27y, 4-methyl-2-(3-cyanophenyl)-1-(4-cyanobenzyl)oxy-1H-imidazole-5-carboxylic acid], 3.88 ± 0.269 µM.
Still for that read-out and setting: as for `CCOC(=O)c1c(C)nc(-c2cccc(C#N)c2)n1OCc1ccccc1Cl` [LY-26o, ethyl 1-[(2-chlorobenzyl)oxy]-2-(3-cyanophenyl)-4-methyl-1H-imidazole-5-carboxylate], the figure is 8.71 ± 0.242 µM.
Take `CCOC(=O)c1c(C)nc(-c2ccc(O)c(C#N)c2)n1O` [LY-8b, ethyl 2-(3-cyano-4-hydroxyphenyl)-1-hydroxy-4-methyl-1H-imidazole-5-carboxylate]: the IC50 came out at 18.3 ± 1.03 µM.
Still for that read-out and setting: as for `CCOC(=O)c1c(C)nc(-c2cccc(C#N)c2)n1C` [LY-30a, ethyl 2-(3-cyanophenyl)-1,4-dimethyl-1H-imidazole-5-carboxylate], the figure is 22.1 ± 0.703 µM; as for `CCOCCOn1c(-c2cccc(C#N)c2)nc(C)c1C(=O)OCC` [LY-26e, ethyl 2-(3-cyanophenyl)-1-(2-ethoxyethoxy)-4-methyl-1H-imidazole-5-carboxylate], 6.25 ± 0.21 µM; as for `COn1c(-c2cccc(C#N)c2)nc(C)c1C(=O)NC(C)C` [LY-28b, 4-methyl-2-(3-cyanophenyl)-1-methoxy-N-isopropyl-1H-imidazole-5-carboxamide], 11.2 ± 0.966 µM.
In the case of `CCOC(=O)c1c(C)nc(-c2ccc(C#N)cc2)n1OC` [LY-22, ethyl 4-methyl-2-(4-cyanophenyl)-1-methoxy-1H-imidazole-5-carboxylate], the IC50 came out at 13.4 ± 1.03 µM.
Same read-out and setting: as for `CCOC(=O)c1c(C)nc(-c2cccc(C#N)c2)n1OCc1cccc(F)c1` [LY-26m, ethyl 2-(3-cyanophenyl)-1-[(3-fluorobenzyl)oxy]-4-methyl-1H-imidazole-5-carboxylate], the figure is 22.4 ± 1.36 µM; as for `CCOn1c(-c2cccc(C#N)c2)nc(C)c1C(=O)O` [LY-27b, 4-methyl-2-(3-cyanophenyl)-1-ethoxy-1H-imidazole-5-carboxylic acid], 9.71 ± 0.557 µM; as for `CCOC(=O)COn1c(-c2cccc(C#N)c2)nc(C)c1C(=O)OCC` [LY-26g, ethyl 2-(3-cyanophenyl)-1-(2-ethoxy-2-oxoethoxy)-4-methyl-1H-imidazole-5-carboxylate], 6.8 ± 0.152 µM.
For `CCOC(=O)c1c(C)nc(-c2cccc(C#N)c2)n1OCc1ccc(Br)cc1` [LY-26r, ethyl 1-[(4-bromobenzyl)oxy]-2-(3-cyanophenyl)-4-methyl-1H-imidazole-5-carboxylate], the IC50 worked out at 24.6 ± 0.895 µM.
The same measure, in the same setting: as for `CCOC(=O)c1c(C)nc(-c2cccc(-c3noc(=O)[nH]3)c2)n1O` [LY-15, ethyl 1-hydroxy-4-methyl-2-[3-(5-oxo-4,5-dihydro-1,2,4-oxadiazol-3-yl)phenyl]-1H-imidazole-5-carboxylate], the figure is 22.1 ± 0.299 µM.
As to `CCOC(=O)c1c(C)nc(-c2ccc(OCC(C)C)c(C#N)c2)n1OC(C)=O` [LY-8a, ethyl 1-acetoxy-2-(3-cyano-4-isobutoxyphenyl)-4-methyl-1H-imidazole-5-carboxylate], the IC50 is 5.214 ± 0.0152 µM.
In the case of `CCOC(=O)c1c(C)nc(-c2cccc(C#N)c2)n1OCc1ccccc1` [LY-26k, ethyl 1-(benzyloxy)-2-(3-cyanophenyl)-4-methyl-1H-imidazole-5-carboxylate], the half-maximal inhibitory concentration (IC50) was found to be 5.93 ± 0.265 µM.
With `CCOC(=O)c1c(-c2ccccc2)nc(-c2cccc(C#N)c2)n1O` [LY-16, ethyl 2-(3-cyanophenyl)-1-hydroxy-4-phenyl-1H-imidazole-5-carboxylate], the 50% inhibitory concentration (IC50) worked out at 19.87 ± 0.126 µM.
In the case of `CCOC(=O)c1c(C)nc(-c2cccc(C#N)c2)n1OCc1cccc(Cl)c1` [LY-26p, ethyl 1-[(3-chlorobenzyl)oxy]-2-(3-cyanophenyl)-4-methyl-1H-imidazole-5-carboxylate], the IC50 was found to be 19.4 ± 0.355 µM.
Still for that read-out and setting: with `CCOC(=O)c1c(C)nc(-c2cccc(C#N)c2)n1OCc1ccc(C)cc1` [LY-26s, ethyl 2-(3-cyanophenyl)-4-methyl-1-[(4-methylbenzyl)oxy]-1H-imidazole-5-carboxylate] the figure was 6.31 ± 0.399 µM.
On to `C=CCOn1c(-c2cccc(C#N)c2)nc(C)c1C(=O)O` [LY-27d, 4-methyl-2-(3-cyanophenyl)-1-allyloxy-1H-imidazole-5-carboxylic acid], for which the IC50 came to 6.35 ± 0.469 µM.
Still for that read-out and setting: with `CCOC(=O)c1c(C)nc(-c2cccc(C#N)c2)n1OCc1ccc(C(=O)OC)cc1` [LY-26u, ethyl 2-(3-cyanophenyl)-1-{[4-(methoxycarbonyl)benzyl]oxy}-4-methyl-1H-imidazole-5-carboxylate] the figure was 9.47 ± 0.856 µM.
With `COn1c(-c2cccc(C#N)c2)nc(C)c1C(=O)O` [LY-27a, 4-methyl-2-(3-cyanophenyl)-1-methoxy-1H-imidazole-5-carboxylic acid], the 50% inhibitory concentration (IC50) is 7.99 ± 0.217 µM.
For `CCOC(=O)c1c(C)nc(-c2cccc(C#N)c2)n1OCc1ccc([N+](=O)[O-])cc1` [LY-26v, ethyl 2-(3-cyanophenyl)-4-methyl-1-[(4-nitrobenzyl)oxy]-1H-imidazole-5-carboxylate], the IC50 is 8.75 ± 0.159 µM.
Take `Cc1nc(-c2cccc(C#N)c2)n(O)c1C(=O)O` [LY-11, 2-(3-cyanophenyl)-1-hydroxy-4-methyl-1H-imidazole-5-carboxylic acid]: the half-inhibitory concentration (IC50) stood at 7.865 ± 0.0365 µM.
The same measure, in the same setting: as for `CCOC(=O)c1c(C)nc(-c2cccc(C#N)c2)n1OCCCO` [LY-26f, ethyl 2-(3-cyanophenyl)-1-(3-hydroxypropoxy)-4-methyl-1H-imidazole-5-carboxylate], the figure is 11.4 ± 0.213 µM; as for `C=CCOn1c(-c2cccc(C#N)c2)nc(C)c1C(=O)OCC` [LY-26d, ethyl 1-(allyloxy)-2-(3-cyanophenyl)-4-methyl-1H-imidazole-5-carboxylate], 5.856 ± 0.0165 µM.
On the same count and under the same terms, as for `CCOC(=O)c1c(C)nc(-c2ccccc2C#N)n1OC` [LY-19, ethyl 4-methyl-2-(2-cyanophenyl)-1-methoxy-1H-imidazole-5-carboxylate], the figure is 14.86 ± 0.0568 µM.
Same read-out and setting: with `CCOC(=O)c1c(C)nc(-c2ccc(OCc3ccccc3)c(C#N)c2)n1O` [LY-7b, ethyl 2-(3-cyano-4-benzyloxy)phenyl-1-hydroxy-4-methyl-1H-imidazole-5-carboxylate] the figure was 19 ± 0.317 µM; with `CCOC(=O)c1c(C)nc(-c2cccc(C#N)c2)n1OCC` [LY-26b, ethyl 2-(3-cyanophenyl)-1-ethoxy-4-methyl-1H-imidazole-5-carboxylate], 16.5 ± 1.07 µM.
Take `CCCNC(=O)c1c(C)nc(-c2cccc(C#N)c2)n1OC` [LY-28a, 4-methyl-2-(3-cyanophenyl)-1-methoxy-N-propyl-1H-imidazole-5-carboxamide]: the half-maximal inhibitory concentration (IC50) worked out at 9.57 ± 0.226 µM.
On to `CCOC(=O)c1c(C)nc(-c2cccc(C#N)c2)n1OCc1ccc(OC)cc1` [LY-26t, ethyl 2-(3-cyanophenyl)-1-[(4-methoxybenzyl)oxy]-4-methyl-1H-imidazole-5-carboxylate], for which the IC50 is 6.83 ± 0.0856 µM.

Still in this assay, the particulars now being: rabbit PRP, inducer ADP, absorbance 655 nm; read-out: IC50 (Mean ± SE), ADP-induced platelet aggregation.
As for `CCOC(=O)c1c(C)nc(-c2ccc(OCC(C)C)c(C#N)c2)n1O` [LY-7a, ethyl 2-(3-cyano-4-isobutyloxy)phenyl-1-hydroxy-4-methyl-1H-imidazole-5-carboxylate], the 50% inhibitory concentration (IC50) stood at 16.8 ± 0.874 µM.
